Laboratory results as given in patent US12540141B2, “Spiropyrrolidine derived antiviral agents” (priority 2020, dated 2026).

Target: SARS-CoV-2 3CL-protease (Severe acute respiratory syndrome coronavirus 2, UniProt P0DTD1)
Experiment: SARS-CoV-2 3C-Like (3CL) Protease Fluorescence Assay (FRET)
Type: biochemical
Conditions: SARS-CoV-2 3CL-protease 10 nM, 30 min preincubation at RT, substrate 40 μM

Structure (SMILES) | IC50
CC(C)C[C@@H](C(=O)N1C[C@]2(C[C@H]1C#N)C(=O)Nc1ccc(NC(=O)C3(F)CC3)cc12)N(C)C(=O)c1cc2c(F)cc(F)cc2[nH]1 [Example 504, N—((S)-1-((3R,5′S)-5′-cyano-5-(1-fluorocyclopropane-1-carboxamido)-2-oxospiro[indoline-3,3′-pyrrolidin]-1′-yl)-4-methyl-1-oxopentan-2-yl)-4,6-difluoro-N-methyl-1H-indole-2-carboxamide] | < 100 nM
CC(C)C[C@@H](C(=O)N1C[C@]2(C[C@H]1C#N)C(=O)Nc1ccc(-n3cc(C4CC4)nn3)cc12)N(C)C(=O)c1cc2c(F)cc(F)cc2[nH]1 [Example 505, N—((S)-1-((3R,5′S)-5′-cyano-5-(4-cyclopropyl-1H-1,2,3-triazol-1-yl)-2-oxospiro[indoline-3,3′-pyrrolidin]-1′-yl)-4-methyl-1-oxopentan-2-yl)-4,6-difluoro-N-methyl-1H-indole-2-carboxamide] | < 100 nM
CC(C)C[C@@H](C(=O)N1C[C@]2(C[C@H]1C#N)C(=O)Nc1ccc(-c3cccnc3)cc12)N(C)C(=O)c1cc2c(F)cc(F)cc2[nH]1 [Example 506] | < 100 nM
CC(C)C[C@@H](C(=O)N1C[C@]2(C[C@H]1C#N)C(=O)Nc1ccc(-c3cn(-c4ccccn4)nn3)cc12)N(C)C(=O)c1cc2c(F)cc(F)cc2[nH]1 [Example 507] | < 100 nM
CC(C)C[C@@H](C(=O)N1C[C@]2(C[C@H]1C#N)C(=O)Nc1ccc(Br)cc12)N(C)C(=O)c1cc2c(F)cc(F)cc2[nH]1 [Example 508] | < 100 nM
CC(C)C[C@@H](C(=O)N1C[C@]2(C[C@H]1C#N)C(=O)Nc1ccc(C#C[Si](C)(C)C)cc12)N(C)C(=O)c1cc2c(F)cc(F)cc2[nH]1 [Example 509] | < 100 nM
CC(C)C[C@@H](C(=O)N1C[C@]2(C[C@H]1C#N)C(=O)Nc1ccc(-c3ccncc3)cc12)N(C)C(=O)c1cc2c(F)cc(F)cc2[nH]1 [Example 510] | < 100 nM
CC(C)C[C@@H](C(=O)N1C[C@]2(C[C@H]1C#N)C(=O)Nc1ccc(-c3ccc(F)cc3)cc12)N(C)C(=O)c1cc2c(F)cc(F)cc2[nH]1 [Example 511] | < 100 nM
CC(C)C[C@@H](C(=O)N1C[C@]2(C[C@H]1C#N)C(=O)Nc1ccc(-c3ccoc3)cc12)N(C)C(=O)c1cc2c(F)cc(F)cc2[nH]1 [Example 512] | < 100 nM
CC(C)C[C@@H](C(=O)N1C[C@]2(C[C@H]1C#N)C(=O)Nc1ccc(-c3ccsc3)cc12)N(C)C(=O)c1cc2c(F)cc(F)cc2[nH]1 [Example 513] | < 100 nM
CC(C)C[C@@H](C(=O)N1C[C@]2(C[C@H]1C#N)C(=O)Nc1ccc(-c3ccn(C(F)F)n3)cc12)N(C)C(=O)c1cc2c(F)cc(F)cc2[nH]1 [Example 514] | < 100 nM
CC(C)C[C@@H](C(=O)N1C[C@]2(C[C@H]1C#N)C(=O)Nc1ccc(-c3cnoc3)cc12)N(C)C(=O)c1cc2c(F)cc(F)cc2[nH]1 [Example 515] | < 100 nM
CC(C)C[C@@H](C(=O)N1C[C@]2(C[C@H]1C#N)C(=O)Nc1ccc(-c3ccccn3)cc12)N(C)C(=O)c1cc2c(F)cc(F)cc2[nH]1 [Example 516] | < 100 nM
CC(C)C[C@@H](C(=O)N1C[C@]2(C[C@H]1C#N)C(=O)Nc1ccc(Br)cc12)N(C)C(=O)OCc1ccccc1 [Example 517, benzyl ((S)-1-((3R,5′S)-5-bromo-5′-cyano-2-oxospiro[indoline-3,3′-pyrrolidin]-1′-yl)-4-methyl-1-oxopentan-2-yl)(methyl)carbamate] | < 100 nM
Cc1ccc2c(c1)[C@@]1(C[C@@H](C#N)N(C(=O)[C@H](CC(C)C)N(C)C(=O)OCc3ccccc3)C1)C(=O)N2 [Example 518, benzyl ((S)-1-((3R,5′S)-5′-cyano-5-methyl-2-oxospiro[indoline-3,3′-pyrrolidin]-1′-yl)-4-methyl-1-oxopentan-2-yl)(methyl)carbamate] | < 100 nM
Cc1c(C(=O)N[C@@H](CC2CC2)C(=O)N2C[C@]3(C[C@H]2C#N)C(=O)Nc2ccc(Cl)cc23)sc2cccc(F)c12 [Example 519, N—((S)-1-((3R,5′S)-5-chloro-5′-cyano-2-oxospiro[indoline-3,3′-pyrrolidin]-1′-yl)-3-cyclopropyl-1-oxopropan-2-yl)-4-fluoro-3-methylbenzo[b]thiophene-2-carboxamide] | < 100 nM
N#C[C@@H]1C[C@@]2(CN1C(=O)[C@H](CC1CC1)NC(=O)c1cccc(OC(F)(F)F)c1)C(=O)Nc1ccc(Cl)cc12 [Example 520] | < 100 nM
Cc1c(C(=O)N[C@@H](CC2CC2)C(=O)N2C[C@]3(C[C@H]2C#N)C(=O)Nc2ccc(F)cc23)sc2cccc(F)c12 [Example 521] | < 100 nM
N#C[C@@H]1C[C@@]2(CN1C(=O)[C@H](CC1CC1)NC(=O)c1c(Cl)cccc1Cl)C(=O)Nc1ccc(F)cc12 [Example 522] | 100 to 1000 nM
C[C@H](OC(=O)N[C@@H](CC(C)(C)C)C(=O)N1C[C@]2(C[C@H]1C#N)C(=O)Nc1ccc(F)cc12)c1ccc(F)cc1 [Example 524] | < 100 nM
N#C[C@@H]1C[C@@]2(CN1C(=O)[C@H](CC1CC1)NC(=O)c1c(Cl)cccc1Cl)C(=O)Nc1ccc(Cl)cc12 [Example 525] | < 100 nM
N#C[C@@H]1C[C@@]2(CN1C(=O)[C@H](CC1CC1)NC(=O)c1cccc(OC(F)(F)F)c1)C(=O)Nc1ccc(F)cc12 [Example 526] | < 100 nM
CC(C)C[C@H](NC(=O)O[C@@H](c1ccccc1)C(F)(F)F)C(=O)N1C[C@]2(C[C@H]1C#N)C(=O)Nc1ccc(F)cc12 [Example 527, (S)-2,2,2-trifluoro-1-phenylethyl ((S)-1-((3R,5′S)-5′-cyano-5-fluoro-2-oxospiro[indoline-3,3′-pyrrolidin]-1′-yl)-4-methyl-1-oxopentan-2-yl)carbamate] | < 100 nM
CC(C)C[C@H](NC(=O)c1cc2c(F)cccc2[nH]1)C(=O)N1C[C@]2(C[C@H]1C#N)C(=O)Nc1cccc(Cl)c12 [Example 528] | 100 to 1000 nM

Structure (SMILES) | IC50
Cc1cccc2c1[C@@]1(C[C@@H](C#N)N(C(=O)[C@H](CC(C)C)NC(=O)c3cc4c(F)cccc4[nH]3)C1)C(=O)N2 [Example 529] | 100 to 1000 nM
CC(C)C[C@H](NC(=O)c1cc2c(F)cccc2[nH]1)C(=O)N1C[C@]2(C[C@H]1C#N)C(=O)Nc1cc(F)ccc12 [Example 530] | < 100 nM
CC(C)C[C@H](NC(=O)c1cc2c(F)cccc2[nH]1)C(=O)N1C[C@]2(C[C@H]1C#N)C(=O)Nc1cc(Cl)ccc12 [Example 531] | < 100 nM
CC(C)C[C@H](NC(=O)c1cc2c(F)cccc2[nH]1)C(=O)N1C[C@]2(C[C@H]1C#N)C(=O)Nc1c(Cl)cccc12 [Example 533] | < 100 nM
Cc1cccc2c1NC(=O)[C@]21C[C@@H](C#N)N(C(=O)[C@H](CC(C)C)NC(=O)c2cc3c(F)cccc3[nH]2)C1 [Example 534] | < 100 nM
C=CC(=O)N(C)[C@@H](CC(C)(C)F)C(=O)N1C[C@]2(C[C@H]1C#N)C(=O)Nc1ccccc12 [Example 535, N—((S)-1-((3R,5′S)-5′-cyano-2-oxospiro[indoline-3,3′-pyrrolidin]-1′-yl)-4-fluoro-4-methyl-1-oxopentan-2-yl)-N-methylacrylamide] | 100 to 1000 nM
CN(C(=O)CN1CCOCC1)[C@@H](CC(C)(C)F)C(=O)N1C[C@]2(C[C@H]1C#N)C(=O)Nc1ccccc12 [Example 536] | 100 to 1000 nM
CN(C(=O)CCN1CCOCC1)[C@@H](CC(C)(C)F)C(=O)N1C[C@]2(C[C@H]1C#N)C(=O)Nc1ccccc12 [Example 537] | < 100 nM
CN(C(=O)CCCN1CCOCC1)[C@@H](CC(C)(C)F)C(=O)N1C[C@]2(C[C@H]1C#N)C(=O)Nc1ccccc12 [Example 538] | > 1000 nM
CN(C)CCC(=O)N(C)[C@@H](CC(C)(C)F)C(=O)N1C[C@]2(C[C@H]1C#N)C(=O)Nc1ccccc12 [Example 539, N—((S)-1-((3R,5′S)-5′-cyano-2-oxospiro[indoline-3,3′-pyrrolidin]-1′-yl)-4-fluoro-4-methyl-1-oxopentan-2-yl)-3-(dimethylamino)-N-methylpropanamide] | < 100 nM
CN(C(=O)CCN1CCC1)[C@@H](CC(C)(C)F)C(=O)N1C[C@]2(C[C@H]1C#N)C(=O)Nc1ccccc12 [Example 540] | < 100 nM
CN(C(=O)CCN1CCCC1)[C@@H](CC(C)(C)F)C(=O)N1C[C@]2(C[C@H]1C#N)C(=O)Nc1ccccc12 [Example 541] | < 100 nM
CN(C(=O)CCN1CCCCC1)[C@@H](CC(C)(C)F)C(=O)N1C[C@]2(C[C@H]1C#N)C(=O)Nc1ccccc12 [Example 542] | < 100 nM
CNCCC(=O)N(C)[C@@H](CC(C)(C)F)C(=O)N1C[C@]2(C[C@H]1C#N)C(=O)Nc1ccccc12 [Example 543] | < 100 nM
CCN(CC)CCC(=O)N(C)[C@@H](CC(C)(C)F)C(=O)N1C[C@]2(C[C@H]1C#N)C(=O)Nc1ccccc12 [Example 544] | < 100 nM
C[C@@H]1CCC[C@H](C)N1CCC(=O)N(C)[C@@H](CC(C)(C)F)C(=O)N1C[C@]2(C[C@H]1C#N)C(=O)Nc1ccccc12 [Example 545] | < 100 nM
C[C@@H]1COC[C@H](C)N1CCC(=O)N(C)[C@@H](CC(C)(C)F)C(=O)N1C[C@]2(C[C@H]1C#N)C(=O)Nc1ccccc12 [Example 546] | < 100 nM
CN(C(=O)CCNc1nccs1)[C@@H](CC(C)(C)F)C(=O)N1C[C@]2(C[C@H]1C#N)C(=O)Nc1ccccc12 [Example 547] | < 100 nM
N#C[C@@H]1C[C@@]2(CN1C(=O)[C@H](CN1CCCC1=O)NC(=O)OCc1ccccc1)C(=O)Nc1ccccc12 [Example 548, benzyl ((S)-1-((3R,5′S)-5′-cyano-2-oxospiro[indoline-3,3′-pyrrolidin]-1′-yl)-1-oxo-3-(2-oxopyrrolidin-1-yl)propan-2-yl)carbamate] | 100 to 1000 nM
CC(C)C[C@@H](C(=O)N1C[C@]2(C[C@H]1C#N)C(=O)Nc1ncccc12)N(C)C(=O)c1cc2c(F)cc(F)cc2[nH]1 [Example 549] | < 100 nM
CC(C)C[C@@H](C(=O)N1C[C@]2(C[C@H]1C#N)C(=O)Nc1ncccc12)N(C)C(=O)c1cc2c(F)cc(F)c(F)c2[nH]1 [Example 550] | < 100 nM
CN(C(=O)c1cc2c(F)cc(F)c(F)c2[nH]1)[C@@H](CC(C)(C)F)C(=O)N1C[C@]2(C[C@H]1C#N)C(=O)Nc1ncccc12 [Example 551] | < 100 nM
CN(C(=O)c1cc2c(F)cc(F)c(F)c2[nH]1)[C@@H](CC(C)(C)F)C(=O)N1C[C@]2(C[C@H]1C#N)C(=O)Nc1cccnc12 [Example 552] | < 100 nM
